The values below come from patent US20230143612A1 (Arbutus Biopharma Corporation, priority 2020, published 2023).

PD-L1 His protein / PD-1 Fc protein, sequence (Q9NZQ7 19-238 limits assumed): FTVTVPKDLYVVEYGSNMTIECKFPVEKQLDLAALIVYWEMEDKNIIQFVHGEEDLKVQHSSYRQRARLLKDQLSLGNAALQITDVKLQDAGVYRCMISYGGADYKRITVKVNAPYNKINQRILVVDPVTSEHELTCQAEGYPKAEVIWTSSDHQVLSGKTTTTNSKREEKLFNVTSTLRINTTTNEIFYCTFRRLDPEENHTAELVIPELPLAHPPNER

The assay deals with PD-L1 His protein / PD-1 Fc protein (Homo sapiens, UniProt Q9NZQ7). In words: HTRF Assay (PD-1/PD-L1 interaction). It is filed as binding. As to conditions: PD-L1 His 6 nM, PD-1 Fc 6 nM. In short, it runs like this:
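HTRF: PD-L1 His (6 nM final), compound (3-fold dilutions, 20 μM to 0.001 μM final) and PD-1 Fc (6 nM final) preincubated 15 min at room temperature. Anti-human IgG-XL665 and anti-6HIS Tb cryptate (mixed at 6.7 nM and 0.35 nM) then added for 1 h at room temperature before reading.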
For orientation: Time-resolved FRET reads energy transfer from a long-lived donor to a nearby acceptor.
By IC50 is commonly meant the point on the concentration scale where inhibition reaches its midpoint. On to `Cc1c(COc2cc(OCc3cncc(C#N)c3)c(CNCCO)cc2Cl)cccc1-c1cccc(-c2cnc3cc(CNCCO)ccn3c2=O)c1C` [Example 17, 5-((4-Chloro-2-(((2-hydroxyethyl)amino)methyl)-5-((3′-(8-(((2-hydroxyethyl)amino)methyl)-4-oxo-4H-pyrido[1,2-a]pyrimidin-3-yl)-2,2′-dimethyl-[1,1′-biphenyl]-3-yl)methoxy)phenoxy)methyl)nicotinonitrile], for which the half-maximal inhibitory concentration (IC50) was determined as 2 nM. This lies in the single-digit nanomolar range. As for `COc1nc(-c2cccc(-c3cccc(-c4ccn5c(=O)c(CNC[C@@H](C)O)cnc5c4)c3Cl)c2Cl)ccc1CNC[C@H](C)O` [Example 195, 8-(2,2′-Dichloro-3′-(5-((((S)-2-hydroxypropyl)amino)methyl)-6-methoxypyridin-2-yl)-[1,1′-biphenyl]-3-yl)-3-((((R)-2-hydroxypropyl)amino)methyl)-4H-pyrido[1,2-a]pyrimidin-4-one], the figure is 2.5 nM; as for `COc1nc(-c2cccc(-c3cccc(-c4cc5c(=O)n(C)c(CNC[C@@H](O)CC(=O)O)nn5c4)c3Cl)c2Cl)ccc1CNC[C@@H]1CCC(=O)N1` [Example 493, (3S)-4-[[6-[2-Chloro-3-[2-chloro-3-[6-methoxy-5-[[[(2S)-5-oxopyrrolidin-2-yl]methylamino]methyl]-2-pyridyl]phenyl]phenyl]-3-methyl-4-oxo-pyrrolo[2,1-f][1,2,4]triazin-2-yl]methylamino]-3-hydroxy-butanoic acid], 0.1 nM. Compound `CNC(=O)C(C)(C)NCc1cnc2cc(-c3cccc(-c4cccc(-c5ccc(CNC[C@@H]6CCC(=O)N6)c(OC)n5)c4Cl)c3Cl)ccn2c1=O` [Example 209, (S)-2-(((8-(2,2′-Dichloro-3′-(6-methoxy-5-((((5-oxopyrrolidin-2-yl)methyl)amino)methyl)pyridin-2-yl)-[1,1′-biphenyl]-3-yl)-4-oxo-4H-pyrido[1,2-a]pyrimidin-3-yl)methyl)amino)-N,2-dimethylpropanamide] displayed an IC50 of 0.1 nM. For `COc1nc(-c2cccc(-c3cccc(-c4cc(=O)n5cc(CNC[C@@H]6CCC(=O)N6)ccc5n4)c3Cl)c2Cl)ccc1CNC[C@@H]1CCC(=O)N1` [Example 59, 2-(2,2′-Dichloro-3′-(6-methoxy-5-(((((S)-5-oxopyrrolidin-2-yl)methyl)amino)methyl)pyridin-2-yl)-[1,1′-biphenyl]-3-yl)-7-(((((S)-5-oxopyrrolidin-2-yl)methyl)amino)methyl)-4H-pyrido[1,2-a]pyrimidin-4-one], inhibition was half-maximal at 2.9 nM (IC50). This IC50 is about 29-fold higher than that of the compound before. Consider `COc1nc(-c2cccc(-c3cccc(-c4ccn5c(=O)c(CNC[C@@H]6CCC(=O)N6)c(OC)nc5c4)c3Cl)c2Cl)ccc1CNC[C@@H]1CCC(=O)N1` [Example 201, 8-(2,2′-Dichloro-3′-(6-methoxy-5-(((((S)-5-oxopyrrolidin-2-yl)methyl)amino)methyl)pyridin-2-yl)-[1,1′-biphenyl]-3-yl)-2-methoxy-3-(((((S)-5-oxopyrrolidin-2-yl)methyl)amino)methyl)-4H-pyrido[1,2-a]pyrimidin-4-one], for which half-maximal inhibition (IC50) was put at 100 nM. Against the preceding compound, the IC50 is about 34-fold higher. With `COc1nc(-c2cccc(-c3cccc(-c4ccn5c(=O)c(CNCCCC(=O)O)cnc5c4)c3Cl)c2Cl)ccc1CNC[C@@H]1CCC(=O)N1` [Example 160, (S)-4-(((8-(2,2′-Dichloro-3′-(6-methoxy-5-((((5-oxopyrrolidin-2-yl)methyl)amino)methyl)pyridin-2-yl)-[1,1′-biphenyl]-3-yl)-4-oxo-4H-pyrido[1,2-a]pyrimidin-3-yl)methyl)amino)butanoic acid], the IC50 turned out to be 0.7 nM. The same measure for `CNC(=O)[C@H]1CCN(Cc2cnc3cc(-c4cccc(-c5cccc(-c6ccc(CNC[C@@H]7CCC(=O)N7)c(OC)n6)c5Cl)c4Cl)ccn3c2=O)C1` [Example 257, (S)-1-((8-(2,2′-Dichloro-3′-(6-methoxy-5-(((((S)-5-oxopyrrolidin-2-yl)methyl)amino)methyl)pyridin-2-yl)-[1,1′-biphenyl]-3-yl)-4-oxo-4H-pyrido[1,2-a]pyrimidin-3-yl)methyl)-N-methylpyrrolidine-3-carboxamide]: 1.9 nM; for `COc1nc(-c2cccc(-c3cccc(-c4ccn5c(=O)c(CNC6CC7(CCNC7=O)C6)cnc5c4)c3Cl)c2Cl)ccc1CNC[C@@H]1CCC(=O)N1` (single isomer, unassigned) [Example 249]: 0.6 nM; for `COc1nc(-c2cccc(-c3cccc(-c4ccc5c(n4)CCC[C@@H]5NC[C@@H]4CCC(=O)N4)c3Cl)c2Cl)ccc1CNC[C@@H]1CCC(=O)N1` [Example 435, (S)-5-((((6-(2,2′-Dichloro-3′-((S)-5-((((S)-5-oxopyrrolidin-2-yl)methyl)amino)-5,6,7,8-tetrahydroquinolin-2-yl)-[1,1′-biphenyl]-3-yl)-2-methoxypyridin-3-yl)methyl)amino)methyl)pyrrolidin-2-one]: 23 nM. The same measure for `Cc1c(COc2cc(OCc3cncc(C#N)c3)c(CNCCO)cc2Cl)cccc1-c1cccc(-c2ccn3c(=O)c(CNCCO)ccc3c2)c1C` [Example 9, 5-((4-Chloro-2-(((2-hydroxyethyl)amino)methyl)-5-((3′-(3-(((2-hydroxyethyl)amino)methyl)-4-oxo-4H-quinolizin-8-yl)-2,2′-dimethyl-[1,1′-biphenyl]-3-yl)methoxy)phenoxy)methyl)nicotinonitrile]: 1.1 nM. As for `COc1nc(-c2cccc(-c3cccc(-c4ccn5c(=O)c(CNC6CNC(=O)C6)cnc5c4)c3Cl)c2Cl)ccc1CNC1CNC(=O)C1` (mixture of isomers) [Example 63, 8-(2,2′-Dichloro-3′-(6-methoxy-5-(((5-oxopyrrolidin-3-yl)amino)methyl)pyridin-2-yl)-[1,1′-biphenyl]-3-yl)-3-(((5-oxopyrrolidin-3-yl)amino)methyl)-4H-pyrido[1,2-a]pyrimidin-4-one], the figure is 1.5 nM. For the compound `COc1cc(-c2cccc(-c3cccc(-c4ccc(CNC[C@@H]5CCC(=O)N5)c(OC)n4)c3Cl)c2Cl)cc2c1CN(CCC(C)(C)O)CC2` [Example 485, (S)-5-((((6-(2,2′-Dichloro-3′-(2-(3-hydroxy-3-methylbutyl)-8-methoxy-1,2,3,4-tetrahydroisoquinolin-6-yl)-[1,1′-biphenyl]-3-yl)-2-methoxypyridin-3-yl)methyl)amino)methyl)pyrrolidin-2-one], the 50% inhibitory concentration (IC50) is 0.1 nM. The same measure for `COc1nc(-c2cccc(-c3cccc(-c4ccn5c(=O)c(C)c(CNC[C@@H]6CCC(=O)N6)nc5c4)c3Cl)c2Cl)ccc1CNC[C@@H]1CCC(=O)N1` [Example 372, 8-(2,2′-Dichloro-3′-(6-methoxy-5-(((((S)-5-oxopyrrolidin-2-yl)methyl)amino)methyl)pyridin-2-yl)-[1,1′-biphenyl]-3-yl)-3-methyl-2-(((((S)-5-oxopyrrolidin-2-yl)methyl)amino)methyl)-4H-pyrido[1,2-a]pyrimidin-4-one]: 60 nM. As for `O=C1CC[C@@H](CNCc2cnc3cc(-c4cccc(-c5cccc(-c6ccc7c(n6)OCCNC7)c5Cl)c4Cl)ccn3c2=O)N1` [Example 261, (S)-8-(2,2′-Dichloro-3′-(2,3,4,5-tetrahydropyrido[3,2-f][1,4]oxazepin-8-yl)-[1,1′-biphenyl]-3-yl)-3-((((5-oxopyrrolidin-2-yl)methyl)amino)methyl)-4H-pyrido[1,2-a]pyrimidin-4-one], the figure is 250 nM.
